Legend:
[1] = Bioavailability in Cynomolgus Monkeys: plasma pharmacokinetics of Compound A after i.v./p.o. dosing; settings: cynomolgus monkey, in vivo
Procedure: (§1) The following in vivo data, in rats, dogs and monkeys, exemplify the surprising improvement in bioavailability of the diester prodrugs of the present invention over the diacid of 3S,4aR,6S, 8aR-6-(((4-carboxy)phenyl)methyl)1,2,3,4,4a,5,6,7,8,8a-decahydroisoquinoline-3-carboxylic acid. Percent bioavailability is determined using the following equation: [formula]
(§2) wherein AUC represents the area under the curve, p.o. represents oral dose, and i.v. represents intravenous dose.
Four female monkeys were administered an oral and iv dose of compound A (oral: 10 mg/kg; iv: 1 mg/kg) to determine oral bioavailability. The same animals were also administered an oral 10 mg/kg dose of compound B. The plasma concentrations of compound A were determined by LC/MS/MS.
Four female cynomolgus monkeys were given a single iv dose of compound A (1 mg/kg) on day 0, a single oral dose of compound A (10 mg/kg) on day 6 and a single oral dose of compound B (10 mg/kg) on day 10. Blood was collected at 0.5, 1, 2, 3, 4, 5, 6 and 8 hours post dose for oral dosing and 0.167, 0.33, 0.67, 1, 1.5, 2, 3 and 4 hours post dose for iv dosing. Dosing solutions for compound A and compound B were prepared in water. […] Measurable levels of drug (>10 ng/ml) were still present 8 hours post dose. […] Bioavailability was estimated at 34.8%.

[2] = Pharmacokinetic parameters of Compound A in Fischer Rats after a 10 mg/kg dose; type: in vivo; settings: rat, iv, plasma Compound A
Procedure: as §1, §2
Tables 1 and 2 below summarize the pharmacokinetic parameters found for Compounds A and B following 10 mg/kg administration (i.v. or p.o.) to Beagle Dogs and Fischer Rats respectively.

[3] = Bioavailability in Dogs: plasma pharmacokinetics of Compound A after i.v./p.o. dosing; type: in vivo; settings: both sexes, dog, iv, Beagle dogs, 10 mg/kg
Procedure: as §1, §2
Beagle dogs (2 male and 1 female) were administered an oral and iv dose of 3S,4aR,6S,8aR-6-(((4-carboxy)phenyl)methyl)-1,2,3,4,4a,5,6,7,8,8a-decahydroisoquinoline-3-carboxylic acid (10 mg/kg) to determine oral bioavailability. The same three dogs were also administered an oral 10 mg/kg dose of compound 3S,4aR,6S,8aR-6-(((4-carboxy)phenyl)methyl)-1,2,3,4,4a,5,6,7,8,8a-decahydroisoquinoline-3-carboxylic acid, diethyl ester, to determine whether the prodrug would increase bioavailability. The plasma concentrations of 3S,4aR,6S,8aR-6-(((4-carboxy)phenyl)methyl)-1,2,3,4,4a,5,6,7,8,8a-decahydroisoquinoline-3-carboxylic acid were determined by LC/MS/MS. […]

plasma levels of compound B (unchanged prodrug) ([1]; po, 10 mg/kg)	% Bioavail ([1]; female, po, 10 mg/kg)	AUC ([1]; female, po, 10 mg/kg)	Improvement ([1]; female, po, 10 mg/kg)	increase in the bioavailability ([1]; female, po, 10 mg/kg)	AUC [2]	Cmax [2]	AUC [3]	Cmax [3]	levels of drug in plasma at 0.5 hr ([1]; po, 10 mg/kg)	AUC ([1]; female, iv, 1 mg/kg)	Cmax ([1]; female, iv, 1 mg/kg)	clearance ([1]; female, iv, 1 mg/kg)	half-life ([1]; female, iv, 1 mg/kg)	Cmax ([1]; female, po, 10 mg/kg)	Tmax ([1]; female, po, 10 mg/kg)	concentration at 8 h ([1]; female, po, 10 mg/kg)	SMILES
No detectable plasma levels	34.8%	4,149 ng hr/mL	3.1X	3.1 fold	–	–	–	–	–	–	–	–	–	–	–	–	CCOC(=O)c1ccc(C[C@H]2CC[C@H]3CN[C@H](C(=O)OCC)C[C@H]3C2)cc1.Cl [Compound B, 3S,4aR,6S, 8aR-6-(((4-carboxy)phenyl)methyl)-1,2,3,4,4a,5,6,7,8,8a-decahydroisoquinoline-3-carboxylic acid HCl, diethyl ester]
–	11.1%	1,320 ng hr/mL	1 X	–	2410 ng·h/mL	6280 ng/mL	41400 ng·h/mL	28800 ng/mL	measurable levels of drug were detected	1190 ng·h/mL	1920 ng/mL	14 mL/min/kg	42 min	127 ng/mL	1 h	> 10 ng/mL	O=C(O)c1ccc(C[C@H]2CC[C@H]3CN[C@H](C(=O)O)C[C@H]3C2)cc1 [Compound A, 3S,4aR,6S,8aR-6-(((4-carboxy)phenyl)methyl)-1,2,3,4,4a,5,6,7,8,8a-decahydroisoquinoline-3-carboxylic acid]

From patent US6486175B1, “Diester prodrugs of a decahydroisoquinoline-3-carboxylic acid” (Eli Lilly and Company, priority 1999, dated 2002)
